According to ChEMBL document CHEMBL5030514, “Discovery of Anti-TNBC Agents Targeting PTP1B: Total Synthesis, Structure-Activity Relationship, In Vitro and In Vivo Investigations of Jamunones” (J Med Chem, 2021):
Calls of active or inactive are those of the source. The rule behind the calls is not given here.

Experiments:
[1] = test system: MDA-MB-231; experiment: Cell cycle arrest in human MDA-MB-231 cells assessed as accumulation of cells at G2/M phase at 5 uM measured after 24 hrs by propidium iodide staining based flow cytometry (reference value: 27.5%); format: functional
[2] = test system: MCF7; experiment: Inhibition of PI3K p85 phosphorylation in human MCF7 cells by Western blot analysis; format: cell-based
[3] = test system: MCF7; experiment: Cell cycle arrest in human MCF-7 cells assessed as upregulation of p21 level by Western blot analysis; format: functional, cell-based
[4] = test system: MCF7; experiment: Cell cycle arrest in human MCF7 cells assessed as accumulation of cells at G2/M phase at 15 uM measured after 24 hrs by propidium iodide staining based flow cytometry (reference value: 31%); format: functional
[5] = test system: MDA-MB-231; experiment: Induction of mitochondrial apoptosis in human MDA-MB-231 cells assessed as decrease in mitochondrial membrane potential levels at 5 uM measured after 24 hrs by flow cytometry; format: functional; set-up: scale not given: the % may be the effect or the level left
[6] = test system: MCF7; experiment: Induction of mitochondrial apoptosis in human MCF-7 cells assessed as formation of apoptotic bodies by Hoechst 33258 staining based fluorescence microscopic assay; format: functional, cell-based
[7] = test system: MCF7; experiment: Cell cycle arrest in human MCF-7 cells assessed as downregulation of CDK4 expression by Western blot analysis; format: functional, cell-based
[8] = test system: MDA-MB-231; experiment: Antitumour activity against human MDA-MB-231 cells xenografted in BALB/c nude mouse assessed as upregulation of cleaved poly(ADP-ribose) polymerase level at 15 to 30 mg/kg, ip administered once for every other day for 20 days by Western blot analysis; format: functional, organism-based; conditions: dose 15-30 mg/kg, time 20.0 day
[9] = Selective index, ratio of IC50 for HUVEC cells to IC50 of MCF-7 cells; format: toxicity; conditions: human, HUVEC cells versus MCF-7 cells; read-out: Selectivity Index
[10] = test system: MDA-MB-231; experiment: Induction of mitochondrial apoptosis in human MDA-MB-231 cells assessed as late apoptotic cells at 5 uM measured after 24 hrs by FITC -annexin V/PI double staining based flow cytometric analysis (reference value: 2.3%); format: functional
[11] = test system: MDA-MB-231; experiment: Cell cycle arrest in human MDA-MB-231 cells assessed as upregulation of p21 level by Western blot analysis; format: functional, cell-based
[12] = test system: MDA-MB-231; experiment: Antitumour activity against human MDA-MB-231 cells xenografted in BALB/c nude mouse assessed as downregulation of cyclin D3 level at 15 to 30 mg/kg, ip administered once for every other day for 20 days by Western blot analysis; format: functional, organism-based; conditions: dose 15-30 mg/kg, time 20.0 day
[13] = test system: MDA-MB-231; experiment: Induction of mitochondrial apoptosis in human MDA-MB-231 cells assessed as chromatin shrinkage by Hoechst 33258 staining based fluorescence microscopic assay; format: functional, cell-based
[14] = test system: MDA-MB-231; experiment: Induction of apoptosis in human MDA-MB-231 cells assessed as increase in Bax protein expression at 0.56 to 5 uM measured after 24 hrs by Western blot analysis; format: functional, cell-based; conditions: dose 0.56-5 µM
[15] = test system: MDA-MB-231; experiment: Cell cycle arrest in human MDA-MB-231 cells assessed as accumulation of cells at S phase at 5 uM measured after 24 hrs by propidium iodide staining based flow cytometry (reference value: 27.6%); format: functional
[16] = Selective index, ratio of IC50 for HUVEC cells to IC50 of MDA-MB-231 cells; format: toxicity; conditions: human, HUVEC cells versus MDA-MB-231 cells; read-out: Selectivity Index
[17] = test system: MCF7; experiment: Cell cycle arrest in human MCF-7 cells assessed as accumulation of cells at G0/G1 phase at 15 uM measured after 24 hrs by propidium iodide staining based flow cytometry (reference value: 51.7%); format: functional
[18] = test system: MDA-MB-231; experiment: Induction of mitochondrial apoptosis in human MDA-MB-231 cells assessed as formation of apoptotic bodies by Hoechst 33258 staining based fluorescence microscopic assay; format: functional, cell-based
[19] = test system: MCF7; experiment: Induction of mitochondrial apoptosis in human MCF-7 cells assessed as membrane blebbing by Hoechst 33258 staining based fluorescence microscopic assay; format: functional, cell-based
[20] = Selective index, ratio of IC50 for human 293T cells to IC50 of MDA-MB-231 cells; format: toxicity; conditions: 293T cells versus MDA-MB-231 cells, read-out: Selectivity Index
[21] = molecular target: T1, Tyrosine-protein phosphatase non-receptor type 1 (Homo sapiens, UniProt P18031); experiment: Inhibition of PTP1B (unknown origin)
T1 sequence (P18031 whole entry): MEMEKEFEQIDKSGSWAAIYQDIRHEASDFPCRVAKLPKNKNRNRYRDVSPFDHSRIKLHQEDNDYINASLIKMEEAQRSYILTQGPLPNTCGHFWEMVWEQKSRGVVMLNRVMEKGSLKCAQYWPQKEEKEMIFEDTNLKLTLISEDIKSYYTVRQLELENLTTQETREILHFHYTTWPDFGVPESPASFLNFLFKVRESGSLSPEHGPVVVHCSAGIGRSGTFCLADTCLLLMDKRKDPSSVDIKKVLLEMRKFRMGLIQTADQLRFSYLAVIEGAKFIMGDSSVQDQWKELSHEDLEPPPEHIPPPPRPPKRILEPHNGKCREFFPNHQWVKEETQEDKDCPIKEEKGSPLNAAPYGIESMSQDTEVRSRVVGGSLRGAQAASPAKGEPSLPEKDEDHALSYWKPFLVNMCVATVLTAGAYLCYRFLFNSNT

[22] = test system: MDA-MB-231; experiment: Antitumour activity against human MDA-MB-231 cells xenografted in BALB/c nude mouse assessed as tumour growth inhibition at 15 mg/kg, ip administered once for every other day for 20 days relative to control; format: functional; conditions: MDA-MB-231, ip, 480 h, time 20 day, read-out: TGI
[23] = test system: MDA-MB-231; experiment: Induction of mitochondrial apoptosis in human MDA-MB-231 cells assessed as viable cells at 5 uM measured after 24 hrs by FITC -annexin V/PI double staining based flow cytometric analysis (Rvb =94.3%); format: functional; conditions: read-out: Activity
[24] = test system: MCF7; experiment: Induction of mitochondrial apoptosis in human MCF-7 cells assessed as accumulation of reactive oxygen species by flow cytometry; format: functional, cell-based
[25] = test system: MDA-MB-231; experiment: Effect on PI3K p85 expression in human MDA-MB-231 cells by Western blot analysis; format: functional, cell-based
[26] = test system: MDA-MB-231; experiment: Antitumour activity against human MDA-MB-231 cells xenografted in BALB/c nude mouse assessed as downregulation of Bcl-2 level at 15 to 30 mg/kg, ip administered once for every other day for 20 days by Western blot analysis; format: functional, organism-based; conditions: dose 15-30 mg/kg, time 20.0 day
[27] = test system: MCF7; experiment: Induction of mitochondrial apoptosis in human MCF7 cells assessed as early apoptotic cells at 15 uM measured after 24 hrs by FITC -annexin V/PI double staining based flow cytometric analysis (reference value: 3.3%); format: functional
[28] = Selective index, ratio of IC50 for human 293T cells to IC50 of MCF-7 cells; format: toxicity; conditions: 293T cells versus MCF-7 cells, read-out: Selectivity Index
[29] = test system: MDA-MB-231; experiment: Induction of mitochondrial apoptosis in human MDA-MB-231 cells assessed as early apoptotic cells at 5 uM measured after 24 hrs by FITC -annexin V/PI double staining based flow cytometric analysis (reference value: 2.2%); format: functional
[30] = test system: MDA-MB-231; experiment: Inhibition of PI3K in human MDA-MB-231 cells assessed as Akt phosphorylation by Western blot analysis; format: cell-based
[31] = test system: MCF7; experiment: Induction of apoptosis in human MCF-7 cells assessed as upregulation of cleaved poly(ADP-ribose) polymerase level at 1.67 to 15 uM measured after 24 hrs by Western blot analysis; format: functional, cell-based; conditions: dose 1.67-15 µM

Q: Which Activity [1] does the source give for `CCCC/C=C/CCCCCCCCCC1(O)CC(=O)c2c(O)c(C)c(O)c(C)c2O1` (stereo unspecified) here?
A: 18.5%

Q: And the inhibition [2]?
A: Dose-Dependent Effect

Q: And the Activity [3]?
A: Dose-Dependent Effect

Q: And the Activity [4]?
A: 22.7%

Q: And the Activity [5]?
A: 62.2%

Q: And the Activity [6]?
A: Active

Q: And the Activity [7]?
A: Dose-Dependent Effect

Q: What about the Activity [8] of the same molecule?
A: Active

Q: And the selectivity ratio [9]?
A: 2.64

Q: And the Activity [10]?
A: 7%

Q: And the Activity [11]?
A: Dose-Dependent Effect

Q: And the Activity [12]?
A: Active

Q: And the Activity [13]?
A: Active

Q: And the Activity [14]?
A: Dose-Dependent Effect

Q: And the Activity [15]?
A: 21.3%

Q: And the selectivity ratio [16]?
A: 6.78

Q: And the Activity [17]?
A: 66.8%

Q: And the Activity [18]?
A: Active

Q: And the Activity [19]?
A: Active

Q: What about the selectivity ratio [20] of the same molecule?
A: 5.35

Q: What about the IC50 [21] of the same molecule?
A: 1800 nM

Q: What about the inhibition in vivo at 15 mg/kg [22] of the same molecule?
A: 53.6%

Q: What about the viability at 5 µM [23] of the same molecule?
A: 82%

Q: What about the Activity [24] of the same molecule?
A: Active

Q: And the Activity [25]?
A: inactive

Q: And the Activity [26]?
A: Active

Q: And the Activity [27]?
A: 4.7%

Q: What about the selectivity ratio [28] of the same molecule?
A: 2.08

Q: And the Activity [29]?
A: 6.1%

Q: What about the inhibition [30] of the same molecule?
A: Dose-Dependent Effect

Q: What about the Activity [31] of the same molecule?
A: Active
